Laboratory results from patent publication US20050159360A1, “Compositions for the transport of therapeutic molecules into the lungs and use thereof for the treatment of lung cancers and pulmonary diseases” (SYNT:EM, a corporation of France, priority 2002, published 2005).

Assay: Pharmacokinetics/biodistribution of [14C]-tagged doxorubicin and vectorized doxorubicin in plasma and organs after intravenous injection in mice;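 further: radioactivity counted in plasma and organs of mice killed 1 to 60 min post-dose, converted to percentage of product per organ, five animals per time point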
Conditions: i.v., 1 mg/kg doxorubicin equivalent, 14C radioactivity
Method: About 0.6-1 microcurie was injected per animal. The doxorubicin was tagged with carbon 14 (specific activity 55 mCi/mmol). After the indicated time periods (1, 5, 15, 30, 60 minutes), the mice were sacrificed. The organs (lungs, liver, brain, kidneys, etc.) and the plasma were then collected and counted. The quantity of radioactivity in each organ was then expressed as quantity of product per gram of organ. In this study, five mice were used for each time period.
After injection of the doxorubicin or the vectorized doxorubicin, we compared the pharmacokinetics/biodistribution of the products in the plasma and the different organs. The quantity of each product was expressed as percentage of product per organ.

COc1cccc2c1C(=O)c1c(O)c3c(c(O)c1C2=O)C[C@@](O)(C(=O)CO)C[C@@H]3O[C@H]1C[C@H](N)[C@H](O)[C@H](C)O1 [compound 1, doxorubicin]
Percentage of product in Brain after intravenous injection (time 1 minute): 0.06%
Percentage of product in Heart after intravenous injection (time 1 minute): 0.58%
Percentage of product in Kidneys after intravenous injection (time 1 minute): 3.37%
Percentage of product in Liver after intravenous injection (time 1 minute): 17.81%
Percentage of product in Lungs after intravenous injection (time 1 minute): 1.30%
Percentage of product in Plasma after intravenous injection (time 1 minute): 1.84%
Percentage of product in Brain after intravenous injection (time 5 minutes): 0.03%
Percentage of product in Heart after intravenous injection (time 5 minutes): 0.52%
Percentage of product in Kidneys after intravenous injection (time 5 minutes): 5.58%
Percentage of product in Liver after intravenous injection (time 5 minutes): 23.02%
Percentage of product in Lungs after intravenous injection (time 5 minutes): 1.24%
Percentage of product in Plasma after intravenous injection (time 5 minutes): 0.53%
Percentage of product in Brain after intravenous injection (time 15 minutes): 0.03%
Percentage of product in Heart after intravenous injection (time 15 minutes): 0.54%
Percentage of product in Kidneys after intravenous injection (time 15 minutes): 5.24%
Percentage of product in Liver after intravenous injection (time 15 minutes): 20.22%
Percentage of product in Lungs after intravenous injection (time 15 minutes): 1.14%
Percentage of product in Plasma after intravenous injection (time 15 minutes): 0.34%
Percentage of product in Brain after intravenous injection (time 30 minutes): 0.02%
Percentage of product in Heart after intravenous injection (time 30 minutes): 0.45%
Percentage of product in Kidneys after intravenous injection (time 30 minutes): 4.48%
Percentage of product in Liver after intravenous injection (time 30 minutes): 19.70%
Percentage of product in Lungs after intravenous injection (time 30 minutes): 1.03%
Percentage of product in Plasma after intravenous injection (time 30 minutes): 0.19%
Percentage of product in Brain after intravenous injection (time 60 minutes): 0.02%
Percentage of product in Heart after intravenous injection (time 60 minutes): 0.36%
Percentage of product in Kidneys after intravenous injection (time 60 minutes): 2.43%
Percentage of product in Liver after intravenous injection (time 60 minutes): 17.80%
Percentage of product in Lungs after intravenous injection (time 60 minutes): 0.85%
Percentage of product in Plasma after intravenous injection (time 60 minutes): 0.18%
